Assay results published in publication PMC7024208, “In Silico and In Vitro Experimental Studies of New Dibenz[b,e]oxepin-11(6H)one O-(arylcarbamoyl)-oximes Designed as Potential Antimicrobial Agents” (Molecules, 2020).
Converted amounts (≈) assume the structure as drawn. Like-named read-outs stand apart in the source and are kept apart here.

How the values were obtained:
[1] = system: B. subtilis ATCC 6633; test: Qualitative antimicrobial screening, adapted disk diffusion; assay type: cell-based, Bacillus subtilis; parameters: zone of inhibition: dose or concentration left out as unconfirmed; settings: for growth inhibition diameter / zone of inhibition at 5000 µg/mL (stock): B. subtilis ATCC 6633, adapted diffusion assay; for zone of inhibition at 5000 µg/mL (stock): ATCC6633, read-out: growth inhibition diameter
Description: (§1) The antimicrobial activities of the synthesized compounds were determined against ATCC reference and clinical microbial strains, i.e., Bacillus subtilis ATCC 6633, Staphylococcus aureus ATCC 25923, Escherichia coli ATCC 25922, Klebsiella pneumoniae 350, Pseudomonas aeruginosa 1671 and Candida albicans ATCC 10231, using as positive controls the antibiotic ticarcillin and the antifungal agent fluconazole. Microbial suspensions of 1.5 × 10^8 CFU/mL corresponding to 0.5 McFarland density obtained from 15–18 h bacterial cultures developed on solid media were used in our experiments. The antimicrobial activity was tested on Mueller-Hinton Agar (MHA) medium, while a Yeast Peptone Glucose (YPG) medium was used in case of C. albicans. The obtained compounds were solubilized in DMSO and the starting stock solution was of 5000 μg/mL concentration. The qualitative screening was performed by an adapted disk diffusion method as previously reported.

[2] = system: P. aeruginosa ATCC 27853; test: as above; assay type: cell-based; parameters: zone of inhibition: dose or concentration left out as unconfirmed; settings: Pseudomonas aeruginosa; for zone of inhibition at 5000 µg/mL (stock): ATCC27853, P. aeruginosa ATCC 27853, adapted diffusion assay, read-out: growth inhibition diameter
[3] = system: E. coli ATCC 25922; test: as above; assay type: cell-based, Escherichia coli; parameters: zone of inhibition: dose or concentration left out as unconfirmed; settings: for growth inhibition diameter / zone of inhibition at 5000 µg/mL (stock): E. coli ATCC 25922, adapted diffusion assay; for zone of inhibition at 5000 µg/mL (stock): ATCC25922, read-out: growth inhibition diameter
Description: as §1

[4] = system: S. aureus ATCC 25923; test: Antibiofilm activity (MBEC), micro-titer method on plastic inert substratum; assay type: cell-based, Staphylococcus aureus; settings: S. aureus ATCC 25923 biofilm on plastic substratum
Description: (§2) The assessment of the new compounds influence on the microbial ability to colonize the plastic inert substratum was performed by the micro-titer method, following previously described protocols. The absorbance at 490 nm was measured with an LB 911 ELISA reader (Apollo, Berthold Technologies GmbH & Co. KG, Bad Wildbad, Germany). All biological experiments were performed in triplicates.

[5] = system: B. subtilis ATCC 6633; test: MIC by liquid medium microdilution; assay type: cell-based, Bacillus subtilis; settings: B. subtilis ATCC 6633, 24 h at 37 °C
Description: as §1
(§3) The quantitative assay of the antimicrobial activity was performed by the liquid medium microdilution method, in 96 multi-well plates, in order to establish the minimal inhibitory concentration (MIC). In this purpose, serial two-fold dilutions of the compounds ranging between 5000 and 4.8 µg/mL were performed in a 200 µL volume of broth and each well was seeded with 50 µL of microbial inoculum. Sterility control (wells containing only culture medium) and culture controls (wells containing culture medium seeded with the microbial inoculum) were used. The influence of the DMSO solvent was also quantified in a series of wells containing DMSO [36], diluted accordingly with the dilution scheme used for the compounds and for the positive controls.

[6] = system: C. albicans ATCC 10231; test: Qualitative antimicrobial screening, adapted disk diffusion; assay type: cell-based, Candida albicans; parameters: zone of inhibition: dose or concentration left out as unconfirmed; settings: for growth inhibition diameter / zone of inhibition at 5000 µg/mL (stock): C. albicans ATCC 10231, adapted diffusion assay; for zone of inhibition at 5000 µg/mL (stock): ATCC10231, read-out: growth inhibition diameter
Description: as §1

[7] = Cytotoxicity, CellTiter Assay; assay type: cell-based; settings: human, HCT8 cells, 400–10 µg/mL tested
Description: (§4) For the in vitro assessment of the cytotoxic effect, the HCT8 cells and the CellTiter Assay kit (Promega, Madison, WI, USA) and Annexin V-FITC Apoptosis Detection Kit I (BD Bioscience Pharmingen, Franklin Lakes, NJ, USA) were used. Briefly, for CellTiter Assay, 1 × 10^4 cells/well were plated in 96 well plate and 24 h after, were treated with the new compound at final concentration between 400 µg/mL–10 µg/mL. The viability was evaluated after 24 h by adding CellTiter aqueous solution and reading to spectrophotometer according to the manufacturer indications. The IC50 were calculated from the percent of viability reported to untreated cells using on line tools https://www.aatbio.com/tools/ic50-calculator. For Annexin V-FITC Apoptosis Detection Kit I, 5 × 10^5 cells were seeded in 3.5 cm diameter Petri dish and treated with 100 µg/mL compounds solution for 24 h. The total cells were resuspended in 100 µL of binding buffer, and stained with 5 µL Annexin V-FITC and 5 µL propidium iodide for 10 min in dark. At least 10,000 events from each sample were acquired using a flow cytometer (Beckman Coulter, Indianapolis, IN, USA). The percentage of cells affected by the treatment was determined by subtracting the percentage of apoptotic/necrotic cells in the untreated population from percentage of apoptotic cells in the treated population.

[8] = system: K. pneumoniae 1771; test: Qualitative antimicrobial screening, adapted disk diffusion; assay type: cell-based, Klebsiella pneumoniae; parameters: zone of inhibition: dose or concentration left out as unconfirmed; settings: for zone of inhibition at 5000 µg/mL (stock): Klebsiella pneumoniae, K. pneumoniae 1771, adapted diffusion assay, read-out: growth inhibition diameter
[9] = system: S. aureus ATCC 25923; test: MIC by liquid medium microdilution; assay type: cell-based; settings: Staphylococcus aureus
Description: as §1, §3

[10] = system: C. albicans ATCC 10231; test: MIC by liquid medium microdilution; assay type: cell-based; settings: Candida albicans
Description: as §1, §3

[11] = system: E. coli ATCC 25922; test: MIC by liquid medium microdilution; assay type: cell-based; settings: Escherichia coli
Description: as §1, §3

[12] = Annexin V-FITC/propidium iodide apoptosis analysis by flow cytometry; assay type: cell-based; settings: human, HCT8 cells, Annexin V-FITC/PI, read-out: viable cells (Q4)
Description: as §4

[13] = system: S. aureus ATCC 25923; test: Qualitative antimicrobial screening, adapted disk diffusion; assay type: cell-based, Staphylococcus aureus; parameters: zone of inhibition: dose or concentration left out as unconfirmed; settings: for zone of inhibition at 5000 µg/mL (stock): ATCC25923, read-out: growth inhibition diameter
Description: as §1

[14] = system: C. albicans ATCC 10231; test: Antibiofilm activity (MBEC), micro-titer method on plastic inert substratum; assay type: cell-based, Candida albicans; settings: C. albicans ATCC 10231 biofilm on plastic substratum
Description: as §2

[15] = system: B. subtilis ATCC 6633; test: as above; assay type: cell-based, Bacillus subtilis; settings: B. subtilis ATCC 6633 biofilm on plastic substratum
Description: as §2

[16] = ATCC25923, S. aureus ATCC 25923, 24 h at 37 °C, read-out: MIC
[17] = ATCC10231, C. albicans ATCC 10231, 24 h at 37 °C, read-out: MIC
[18] = ATCC25922, E. coli ATCC 25922, 24 h at 37 °C, read-out: MIC
[19] = Staphylococcus aureus, S. aureus ATCC 25923, adapted diffusion assay

| SMILES | IC50 at 24 h [7] | viability at 24 h, 100 µg/mL [12] | zone of inhibition at 5000 µg/mL (stock) ([1]; Bacillus subtilis) | zone of inhibition at 5000 µg/mL (stock) [2] | zone of inhibition at 5000 µg/mL (stock) ([3]; Escherichia coli) | zone of inhibition at 5000 µg/mL (stock) ([6]; Candida albicans) | zone of inhibition at 5000 µg/mL (stock) [8] | zone of inhibition at 5000 µg/mL (stock) [13, 19] | also measured |
| --- | --- | --- | --- | --- | --- | --- | --- | --- | --- |
| O=C(Nc1ccc(F)cc1)ON=C1c2ccccc2COc2ccccc21 [Compound 7b, 6,11-Dihydrodibenz[b,e]oxepin-11(6H)one O-(4-fluorophenyl-carbamoyl)oxime] | 252 µg/mL (≈ 695 µM) | 84.3% | – | – | – | – | – | – | growth inhibition diameter [1]: active exclusively on B. subtilis; zone of inhibition ([1]; Bacillus subtilis, ATCC6633, read-out: growth inhibition diameter): 7 mm; zone of inhibition ([2]; ATCC27853, read-out: growth inhibition diameter): 0 mm; zone of inhibition ([3]; Escherichia coli, ATCC25922, read-out: growth inhibition diameter): 0 mm; MBEC [4]: 19.5 µg/mL; MIC [5]: 4.8 µg/mL (≈ 13.2 µM); MIC ([5]; Bacillus subtilis, ATCC6633, 24 h): 4.8 to 39 µg/mL (≈ 13.2 to 108 µM); zone of inhibition ([6]; Candida albicans, ATCC10231, read-out: growth inhibition diameter): 0 mm; zone of inhibition ([8]; Klebsiella pneumoniae, 1771, read-out: growth inhibition diameter): 0 mm; MIC ([9]; ATCC25923, 24 h): > 5000 µg/mL; MIC ([10]; ATCC10231, 24 h): > 5000 µg/mL; MIC ([11]; ATCC25922, 24 h): > 5000 µg/mL; zone of inhibition ([13]; Staphylococcus aureus, ATCC25923, read-out: growth inhibition diameter): 0 mm |
| O=C(Nc1cccc(Cl)c1)ON=C1c2ccccc2COc2ccccc21 [Compound 7c, 6,11-Dihydrodibenz[b,e]oxepin-11(6H)one O-(3-chlorophenyl-carbamoyl)oxime] | 304 µg/mL (≈ 803 µM) | 89.8% | 0 mm | 0 mm | 4 mm | 8 mm | 0 mm | 0 mm | growth inhibition diameter [3]: active against; MIC ([5]; Bacillus subtilis, ATCC6633, 24 h, read-out: MIC): > 5000 µg/mL; growth inhibition diameter [6]: active against; MIC [9, 16]: > 5000 µg/mL; MIC [10, 17]: 1250 µg/mL (≈ 3300 µM); MIC [11, 18]: 1250 µg/mL (≈ 3300 µM); MBEC [14]: 4.8 µg/mL |
| O=C(Nc1ccc(Cl)cc1)ON=C1c2ccccc2COc2ccccc21 [Compound 7d, 6,11-Dihydrodibenz[b,e]oxepin-11(6H)one O-(4-chlorophenyl-carbamoyl)oxime] | – | – | 0 mm | 0 mm | 0 mm | 0 mm | 0 mm | 0 mm | – |
| O=C(Nc1ccc(Cl)cc1Cl)ON=C1c2ccccc2COc2ccccc21 [Compound 7e, 6,11-Dihydrodibenz[b,e]oxepin-11(6H)one O-(2,4-dichlorophenyl-carbamoyl)oxime] | – | – | 0 mm | 0 mm | 0 mm | 0 mm | 0 mm | 0 mm | – |
| O=C(Nc1cccc(C(F)(F)F)c1)ON=C1c2ccccc2COc2ccccc21 [Compound 7f, 6,11-Dihydrodibenz[b,e]oxepin-11(6H)one O-(3-trifluoromethylphenyl-carbamoyl)oxime] | 54.3 µg/mL (≈ 132 µM) | 14.8% | 11 mm | 0 mm | 10 mm | 12 mm | 0 mm | 8 mm | growth inhibition diameter [1]: inhibited the microbial growth; growth inhibition diameter [3]: inhibited the microbial growth; MBEC [4]: 39 µg/mL; MBEC [15]: 39 µg/mL; growth inhibition diameter [6]: inhibited the microbial growth; MIC [9, 16]: 4.8 µg/mL (≈ 11.6 µM); MIC [11, 18]: 78 µg/mL (≈ 189 µM); growth inhibition diameter ([13]; S. aureus ATCC 25923, adapted diffusion assay): inhibited the microbial growth |
| Cc1ccc2c(c1)C(=NOC(=O)Nc1ccc(Cl)cc1Cl)c1ccccc1CO2 [Compound 7g, 2-Methyl-6,11-dihydro-dibenz[b,e]oxepin-11(6H)one O-(2,4-dichlorophenyl-carbamoyl)oxime] | – | – | 0 mm | 0 mm | 0 mm | 0 mm | 0 mm | 0 mm | – |
| CCc1ccc2c(c1)C(=NOC(=O)Nc1ccccc1)c1ccccc1CO2 [Compound 7h, 2-Ethyl-6,11-dihydro-dibenz[b,e]oxepin-11(6H)one O-(phenyl-carbamoyl)oxime] | – | – | 0 mm | 0 mm | 0 mm | 0 mm | 0 mm | 0 mm | – |
| CCc1ccc2c(c1)C(=NOC(=O)Nc1ccc(F)cc1)c1ccccc1CO2 [Compound 7i, 2-Ethyl-6,11-dihydro-dibenz[b,e]oxepin-11(6H)one O-(4-fluorophenyl-carbamoyl)oxime] | – | – | 0 mm | 0 mm | 0 mm | 0 mm | 0 mm | 0 mm | – |
| CCc1ccc2c(c1)C(=NOC(=O)Nc1ccc(Cl)cc1Cl)c1ccccc1CO2 [Compound 7j, 2-Ethyl-6,11-dihydro-dibenz[b,e]oxepin-11(6H)one O-(2,4-dichlorophenyl-carbamoyl)oxime] | – | – | 0 mm | 0 mm | 0 mm | 0 mm | 0 mm | 0 mm | – |
| OC(Cn1cncn1)(Cn1cncn1)c1ccc(F)cc1F [Fluconazole, fluconazole, reference compound] | – | – | – | – | – | 10 mm | – | – | MIC [10, 17]: 4.8 µg/mL (≈ 15.7 µM); MBEC [14]: 39 µg/mL |
